Laboratory results reported in patent US20230312550A1, “N-(2-(4-CYANOTHIAZOLIDIN-3-YL)-2-OXOETHYL)-QUINOLINE-4-CARBOXAMIDES” (AstraZeneca AB, priority 2020, published 2023).
In brackets after ≈: the same amount, converted by molar mass.

How the values were obtained:
[1] = Metabolic stability in rat hepatocytes (rHep); settings: n = 1 or geometric mean of n = 2-3
hFAP (M39-A757) = hFAP (M39-A757) (Homo sapiens (Human), UniProt Q12884); assay: hFAP binding assay (surface plasmon resonance); settings: SPR, 20° C.; for hFAP Binding assay k(off) / hFAP Binding assay k(on): single cycle kinetics; for Kd: n = 1 or geometric mean n = 2-4
hFAP (M39-A757), sequence (Q12884 39-757): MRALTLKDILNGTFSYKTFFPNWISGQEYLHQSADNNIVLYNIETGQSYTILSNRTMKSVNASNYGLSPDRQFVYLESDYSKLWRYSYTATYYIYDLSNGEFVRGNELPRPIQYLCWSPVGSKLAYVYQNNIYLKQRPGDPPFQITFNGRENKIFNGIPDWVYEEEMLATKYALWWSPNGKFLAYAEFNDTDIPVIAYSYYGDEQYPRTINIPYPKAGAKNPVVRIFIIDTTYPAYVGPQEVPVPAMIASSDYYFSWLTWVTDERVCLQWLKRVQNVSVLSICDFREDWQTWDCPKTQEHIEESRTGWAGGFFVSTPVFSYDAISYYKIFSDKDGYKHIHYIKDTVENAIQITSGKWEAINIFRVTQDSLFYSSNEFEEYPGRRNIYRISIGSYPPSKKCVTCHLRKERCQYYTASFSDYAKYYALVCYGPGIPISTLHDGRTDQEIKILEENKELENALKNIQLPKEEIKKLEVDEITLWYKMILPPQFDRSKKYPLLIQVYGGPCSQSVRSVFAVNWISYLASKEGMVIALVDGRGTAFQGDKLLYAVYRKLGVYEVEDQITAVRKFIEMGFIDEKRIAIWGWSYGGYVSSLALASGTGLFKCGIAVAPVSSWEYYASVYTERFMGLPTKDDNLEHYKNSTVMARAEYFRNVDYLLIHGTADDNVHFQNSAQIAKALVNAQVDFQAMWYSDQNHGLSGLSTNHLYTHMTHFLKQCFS

Kinetic solubility = settings: kinetic from dmso stock, Solubility, kinetic solubility; n = 1 or average of n = 2-3
Experimental: Kinetic solubility was measured as described in Comput Aided Mol Des 2015, 29, 795.

FAP = FAP (Homo sapiens (Human), UniProt Q12884); assay: hFAP inhibition assay; type: biochemical; settings: hFAP […], Ala-Pro-AMC 20 μM; n = 1 or geometric mean n = 2-3
FAP, sequence (Q12884 38-760): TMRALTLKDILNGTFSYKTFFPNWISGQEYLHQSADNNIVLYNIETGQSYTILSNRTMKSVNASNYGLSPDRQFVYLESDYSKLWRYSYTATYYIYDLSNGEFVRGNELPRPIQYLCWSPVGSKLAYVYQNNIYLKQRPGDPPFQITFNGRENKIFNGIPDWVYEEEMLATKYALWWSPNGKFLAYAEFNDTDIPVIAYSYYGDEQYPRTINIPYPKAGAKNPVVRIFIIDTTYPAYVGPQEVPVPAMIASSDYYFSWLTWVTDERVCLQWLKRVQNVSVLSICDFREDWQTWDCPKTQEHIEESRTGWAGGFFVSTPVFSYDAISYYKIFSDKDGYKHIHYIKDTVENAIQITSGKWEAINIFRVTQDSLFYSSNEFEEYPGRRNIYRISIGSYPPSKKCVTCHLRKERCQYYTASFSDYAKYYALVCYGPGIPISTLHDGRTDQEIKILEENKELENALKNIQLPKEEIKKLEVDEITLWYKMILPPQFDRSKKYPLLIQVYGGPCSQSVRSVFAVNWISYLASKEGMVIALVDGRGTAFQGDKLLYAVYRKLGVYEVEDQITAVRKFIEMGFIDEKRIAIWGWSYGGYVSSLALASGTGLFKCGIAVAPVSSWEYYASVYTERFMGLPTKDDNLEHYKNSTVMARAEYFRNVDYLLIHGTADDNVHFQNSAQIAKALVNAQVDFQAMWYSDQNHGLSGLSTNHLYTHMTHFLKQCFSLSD
Procedure, shortened: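 Human FAP (0.48 nM) in 100 mM Tris HCl, 100 mM NaCl, 0.05% Chaps, pH 7.4 was preincubated 15 min at rt in the dark with compounds (10-point, 3-fold series from 50 μM). Substrate was added from a 40 μM solution, then 30 min at rt. Fluorescence read at ex 340/em 460 nm; IC50 from one-site dose-response fit of % inhibition.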

[2] = target: Prolyl endopeptidase, Prolyl Oligopeptidase (hPREP) (Homo sapiens (Human), UniProt P48147); assay: hPrep inhibition assay; type: biochemical; settings: hPREP 0.6 nM, Z-Gly-Pro-amino-methylcoumarin 50 μM; read-out: PREP IC50
Prolyl endopeptidase, Prolyl Oligopeptidase (hPREP), sequence (P48147 whole entry): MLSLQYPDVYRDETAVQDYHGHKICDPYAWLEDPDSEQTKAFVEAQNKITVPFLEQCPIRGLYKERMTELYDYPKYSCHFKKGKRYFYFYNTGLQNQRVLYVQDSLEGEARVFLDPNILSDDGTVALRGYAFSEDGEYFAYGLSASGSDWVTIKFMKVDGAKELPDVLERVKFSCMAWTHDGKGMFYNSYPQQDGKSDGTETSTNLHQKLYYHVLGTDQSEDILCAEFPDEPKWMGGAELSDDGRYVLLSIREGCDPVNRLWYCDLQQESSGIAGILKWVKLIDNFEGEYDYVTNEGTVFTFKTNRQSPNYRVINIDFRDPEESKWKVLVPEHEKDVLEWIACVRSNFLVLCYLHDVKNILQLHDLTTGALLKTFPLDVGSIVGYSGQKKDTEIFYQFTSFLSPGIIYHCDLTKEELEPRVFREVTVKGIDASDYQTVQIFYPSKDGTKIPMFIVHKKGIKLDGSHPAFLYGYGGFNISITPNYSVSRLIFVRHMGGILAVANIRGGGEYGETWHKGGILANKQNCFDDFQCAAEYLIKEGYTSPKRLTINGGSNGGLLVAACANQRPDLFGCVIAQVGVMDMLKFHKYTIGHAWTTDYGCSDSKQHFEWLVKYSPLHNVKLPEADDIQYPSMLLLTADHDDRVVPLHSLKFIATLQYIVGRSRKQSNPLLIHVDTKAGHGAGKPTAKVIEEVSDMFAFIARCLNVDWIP
Procedure, shortened: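 Recombinant human PREP at 0.6 nM final with Z-Gly-Pro-AMC substrate at 50 μM final in Tris-HCl pH 7.5, NaCl, Triton X-100, glutathione; 15 min rt preincubation then 20 min rt reaction in dark. AMC fluorescence (ex 340/em 460 nm); IC50 from one-site dose-response fit of % inhibition.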

[3] = target: human Fibroblast activation protein alpha (hFAP) (Homo sapiens (Human), UniProt Q12884); assay: hFAP inhibition assay (tight binders); type: biochemical; settings: Ala-Pro-AMC 20 μM, n = 1 or geometric mean n = 2-6; further: hFAP 2.4 pM
human Fibroblast activation protein alpha (hFAP), sequence (Q12884 38-760): as the sequence (Q12884 38-760) above
Experimental: The plates were read on a PHERAstar® reader with excitation 340 nm and emission 460 nm. Data were analyzed in Genedata Screener®. IC50 values were determined by plotting % inhibition versus log compound concentration and using a one site dose response model.

[4] = Metabolic stability in human liver microsomes (HLM); settings: human, HLM CLint, n = 1 or average of n = 2-3
Experimental: Metabolic stability in HLM was measured as described in J Comput Aided Mol Des 2015, 29, 795.

SMILES | rHep CLint [1] | hFAP Binding assay k(off) (hFAP (M39-A757)) | hFAP Binding assay k(on) (hFAP (M39-A757)) | Kd (hFAP (M39-A757)) | solubility (Kinetic solubility) | IC50 (FAP) | IC50 [2] | IC50 [3] | microsomal CLint [4]
CC[C@H]1COCCN1c1ccc2nccc(C(=O)NCC(=O)N3CSC[C@H]3C#N)c2c1 [Example 106, N-(2-((R)-4-Cyanothiazolidin-3-yl)-2-oxoethyl)-6-((S)-3-ethyl-morpholino)quinoline-4-carboxamide] | 21 μL/min/1E6 | 0.00014 s⁻¹ | 1800000 M⁻¹ s⁻¹ | 0.075 nM | 700 µM (≈ 308 µg/mL) | 0.23 nM | 520 nM | 0.08 nM | 47 µL/min/mg
N#C[C@@H]1CSCN1C(=O)CNC(=O)c1ccnc2ccc(-c3ccc(F)cn3)cc12 [Example 125, (R)—N-(2-(4-Cyanothiazolidin-3-yl)-2-oxoethyl)-6-(5-fluoropyridin-2-yl)quinoline-4-carboxamide] | 7.4 μL/min/1E6 | 0.00014 s⁻¹ | 3000000 M⁻¹ s⁻¹ | 0.048 nM | 38 µM (≈ 16 µg/mL) | 0.21 nM | 120 nM | 0.046 nM | 14 µL/min/mg
N#C[C@@H]1CSCN1C(=O)CNC(=O)c1ccnc2ccc(-c3cccnc3)cc12 [Example 126, (R)—N-(2-(4-Cyanothiazolidin-3-yl)-2-oxoethyl)-6-(pyridin-3-yl)quinoline-4-carboxamide] | 10 μL/min/1E6 | 0.00021 s⁻¹ | 1800000 M⁻¹ s⁻¹ | 0.11 nM | 400 µM (≈ 161 µg/mL) | 0.32 nM | 260 nM | 0.081 nM | 16 µL/min/mg
N#C[C@@H]1CSCN1C(=O)CNC(=O)c1ccnc2ccc(-c3cncnc3)cc12 [Example 127, (R)—N-(2-(4-Cyanothiazolidin-3-yl)-2-oxoethyl)-6-(pyrimidin-5-yl)-quinoline-4-carboxamide] | 8.2 μL/min/1E6 | 0.0020 s⁻¹ | 6000000 M⁻¹ s⁻¹ | 0.34 nM | 120 µM (≈ 48.5 µg/mL) | 0.38 nM | 130 nM | 0.16 nM | 11 µL/min/mg
N#C[C@@H]1CSCN1C(=O)CNC(=O)c1ccnc2ccc(N3CC(F)(c4ccccc4)C3)cc12 [Example 182, (R)—N-(2-(4-Cyanothiazolidin-3-yl)-2-oxoethyl)-6-(3-fluoro-3-phenyl-azetidin-1-yl)quinoline-4-carboxamide] | 26 μL/min/1E6 | 0.000042 s⁻¹ | 250000 M⁻¹ s⁻¹ | 0.093 nM | 230 µM (≈ 109 µg/mL) | 0.41 nM | 210 nM | 0.19 nM | 100 µL/min/mg
Cc1ccc(C2CN(c3ccc4nccc(C(=O)NCC(=O)N5CSC[C@H]5C#N)c4c3)C2)cc1 [Example 183, (R)—N-(2-(4-Cyanothiazolidin-3-yl)-2-oxoethyl)-6-(3-(p-tolyl)azetidin-1-yl)quinoline-4-carboxamide] | 19 μL/min/1E6 |  |  | 0.086 nM | 19 µM (≈ 8.96 µg/mL) | 0.33 nM | 140 nM | 0.19 nM | 49 µL/min/mg
N#C[C@@H]1CSCN1C(=O)CNC(=O)c1ccnc2ccc(N3CC(c4ccc(F)cc4)C3)cc12 [Example 185, (R)—N-(2-(4-Cyanothiazolidin-3-yl)-2-oxoethyl)-6-(3-(4-fluorophenyl)-azetidin-1-yl)quinoline-4-carboxamide] | 15 μL/min/1E6 |  |  | 0.043 nM | 7 µM (≈ 3.33 µg/mL) | 0.23 nM | 130 nM | 0.12 nM | 58 µL/min/mg
Cc1cccc(C2CN(c3ccc4nccc(C(=O)NCC(=O)N5CSC[C@H]5C#N)c4c3)C2)c1 [Example 186, (R)—N-(2-(4-Cyanothiazolidin-3-yl)-2-oxoethyl)-6-(3-(m-tolyl)azetidin-1-yl)quinoline-4-carboxamide] | 24 μL/min/1E6 |  |  | 0.045 nM | 130 µM (≈ 61.3 µg/mL) | 0.27 nM | 150 nM | 0.1 nM | 70 µL/min/mg
N#C[C@@H]1CSCN1C(=O)CNC(=O)c1ccnc2ccc(N3CC(Cc4ccc(Cl)cc4)C3)cc12 [Example 187, (R)-6-(3-(4-Chlorobenzyl)azetidin-1-yl)-N-(2-(4-cyanothiazolidin-3-yl)-2-oxoethyl)quinoline-4-carboxamide] | 140 μL/min/1E6 | 0.00022 s⁻¹ | 3100000 M⁻¹ s⁻¹ | 0.07 nM | 19 µM (≈ 9.61 µg/mL) | 0.098 nM | 38 nM | 0.072 nM | 190 µL/min/mg
CC(C)n1nccc1-c1ccc2nccc(C(=O)NCC(=O)N3CSC[C@H]3C#N)c2c1 [Example 197, (R)—N-(2-(4-Cyanothiazolidin-3-yl)-2-oxoethyl)-6-(1-isopropyl-1H-pyrazol-5-yl)quinoline-4-carboxamide] | 5.3 μL/min/1E6 | 0.000066 s⁻¹ | 88000 M⁻¹ s⁻¹ | 0.75 nM | 6 µM (≈ 2.61 µg/mL) | 0.72 nM | 1900 nM | 0.42 nM | 15 µL/min/mg
N#C[C@@H]1CSCN1C(=O)CNC(=O)c1ccnc2ccc(N3CC4CC4C3)cc12 (stereo partly drawn) [Example 206, 6-(3-Azabicyclo[3.1.0]hexan-3-yl)-N-(2-((R)-4-cyanothiazolidin-3-yl)-2-oxoethyl)quinoline-4-carboxamide] | 130 μL/min/1E6 |  |  | 0.033 nM | 26 µM (≈ 10.6 µg/mL) | 0.22 nM | 330 nM | 0.065 nM | 46 µL/min/mg
N#C[C@@H]1CSCN1C(=O)CNC(=O)c1ccnc2ccc(N3C[C@@H]4[C@H](C3)[C@H]4C(F)(F)F)cc12 [Example 208, N-(2-((R)-4-Cyanothiazolidin-3-yl)-2-oxoethyl)-6-((1R,5S,6R)-6-(trifluoromethyl)-3-azabicyclo[3.1.0]hexan-3-yl)quinoline-4-carboxamide] | 12 μL/min/1E6 | 0.00026 s⁻¹ | 5600000 M⁻¹ s⁻¹ | 0.046 nM | 1.6 µM (≈ 0.761 µg/mL) | 0.22 nM | 210 nM | 0.11 nM | 72 µL/min/mg
C[C@@H]1CCCN1c1ccc2nccc(C(=O)NCC(=O)N3CSC[C@H]3C#N)c2c1 [Example 211, N-(2-((R)-4-cyanothiazolidin-3-yl)-2-oxoethyl)-6-((R)-2-methylpyrrolidin-1-yl)quinoline-4-carboxamide] | 190 μL/min/1E6 | 0.0002 s⁻¹ | 5900000 M⁻¹ s⁻¹ | 0.049 nM | 110 µM (≈ 45 µg/mL) | 0.2 nM | 110 nM | 0.1 nM | 200 µL/min/mg
COC[C@@H]1CCCN1c1ccc2nccc(C(=O)NCC(=O)N3CSC[C@H]3C#N)c2c1 [Example 212, N-(2-((R)-4-Cyanothiazolidin-3-yl)-2-oxoethyl)-6-((S)-2-(methoxymethyl)-pyrrolidin-1-yl)quinoline-4-carboxamide] | 57 μL/min/1E6 | 0.00034 s⁻¹ | 3300000 M⁻¹ s⁻¹ | 0.1 nM | 16 µM (≈ 7.03 µg/mL) | 0.29 nM | 330 nM | 0.26 nM | 110 µL/min/mg
N#C[C@@H]1CSCN1C(=O)CNC(=O)c1ccnc2ccc(N3C[C@H](F)[C@@H](F)C3)cc12 [Example 213, N-(2-((R)-4-Cyanothiazolidin-3-yl)-2-oxoethyl)-6-((3S,4S)-3,4-difluoro-pyrrolidin-1-yl)quinoline-4-carboxamide] | 19 μL/min/1E6 | 0.00017 s⁻¹ | 4400000 M⁻¹ s⁻¹ | 0.039 nM | 100 µM (≈ 43.1 µg/mL) | 0.18 nM | 470 nM | 0.039 nM | 31 µL/min/mg
